Laboratory results reported in BindingDB's records for doi:10.1080/14756360600991017 (University of Athens, 2007).

Biological target: T1, Seed linoleate 13S-lipoxygenase-1 (Glycine max, UniProt P08170)
T1 sequence (P08170 whole entry): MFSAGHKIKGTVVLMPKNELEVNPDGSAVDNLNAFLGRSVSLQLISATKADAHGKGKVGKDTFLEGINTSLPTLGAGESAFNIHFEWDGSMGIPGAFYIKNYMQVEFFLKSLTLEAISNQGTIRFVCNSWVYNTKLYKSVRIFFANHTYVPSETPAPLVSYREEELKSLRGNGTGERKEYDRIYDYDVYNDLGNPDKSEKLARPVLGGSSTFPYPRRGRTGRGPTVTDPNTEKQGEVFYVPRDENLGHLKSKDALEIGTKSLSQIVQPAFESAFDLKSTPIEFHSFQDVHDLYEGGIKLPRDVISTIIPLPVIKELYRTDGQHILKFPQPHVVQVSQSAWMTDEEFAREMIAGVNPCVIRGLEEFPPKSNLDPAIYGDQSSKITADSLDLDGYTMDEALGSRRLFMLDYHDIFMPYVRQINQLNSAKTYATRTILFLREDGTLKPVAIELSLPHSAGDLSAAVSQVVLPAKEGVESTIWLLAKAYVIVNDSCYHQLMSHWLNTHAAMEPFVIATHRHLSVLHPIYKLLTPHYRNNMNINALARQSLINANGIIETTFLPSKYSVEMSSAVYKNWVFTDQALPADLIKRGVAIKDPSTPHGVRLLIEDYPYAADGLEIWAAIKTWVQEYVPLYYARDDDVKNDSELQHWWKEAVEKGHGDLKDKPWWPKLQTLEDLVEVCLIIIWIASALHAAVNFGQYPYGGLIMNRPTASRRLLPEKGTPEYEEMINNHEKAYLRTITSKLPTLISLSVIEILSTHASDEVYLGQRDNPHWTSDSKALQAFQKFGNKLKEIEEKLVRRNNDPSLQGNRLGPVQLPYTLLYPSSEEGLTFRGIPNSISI
Test: Inhibition Assay
Details: 25 °C
Description: soybean lipoxygenase and linoleic acid sodium salt were obtained from Sigma Chemical, Co. in St. Louis, MO. Each experiment of the in vitro assay was performed at least in triplicate and the standard deviation of absorbance was less than 10% of the mean.

SMILES | IC50 [µM]
O=C(O)C[C@H]1CCC(=O)[C@@H]1C/C=C/CCO[C@H]1OC(CO)[C@H](O)C(O)[C@H]1O (some centres undefined) [12-hydroxy-jasmonic acid 12-O-B-glucoside, 4] | 560
O=C(/C=C/c1ccc(O)c2c1C(C(=O)O[C@@H](Cc1ccc(O)c(O)c1)C(=O)O)[C@@H](c1ccc(O)c(O)c1)O2)O[C@H](Cc1ccc(O)c(O)c1)C(=O)O (some centres undefined) [Lithospermic acid, 3] | 1000
O=C(/C=C/c1ccc(O)c(O)c1)O[C@H](Cc1ccc(O)c(O)c1)C(=O)O [Rosmarinic acid, 2] | 1150
CC(C)C1=C[C@H](O)[C@@](C)(O[C@@H]2OC(CO)[C@@H](O)[C@H](O)C2O)CC1 (some centres undefined) [p-menth-3-ene-1,2-diol 1-O-B-glucopyranoside, 5] | 360
